Like-named read-outs stand apart in the source and are kept apart here.

This test concerns the target T1, Human GLP-1 receptor (Homo sapiens, UniProt P43220).
T1 construct: expressed in transfected cells
In words: Measurement of GLP-1 receptor agonist activity (cAMP assay). The format is cell-based. On the procedure:
Test Example 1: (Measurement of GLP-1 Receptor Agonist Activity)
Human GLP-1 receptor stably expressing cells (hGLP-1R/CHO-K1 cells) are cultured in an α-MEM medium (Sigma) containing 10% FBS (Hyclone), 2% GlutaMAX (Gibco), 1% G418 (Nacalai Tesque), and 1% Penicillin-Streptomycin Mixed Solution (Sigma) at 37° C. under 5% CO2 conditions, and recovered by treating a 10 fold diluted 5.0 g/l-trypsin/5.3 mmol/l-EDTA solution (Nacalai Tesque) and cryopreserved.
A DMSO solution containing the compound of the present invention or human GLP-1 (7-36) (Phoenix Pharmaceuticals) is dispensed into a 384-well microplate (Greiner) at 62.5 nL/well, and in addition, 400 μM Forskolin (Nacalai Tesque) is dispensed therein at 7.5 nL/well. Subsequently, the frozen GLP-1 R/CHO-K1 cells are thawed in a thermostatic bath at 37° C., suspended in HBSS buffer (GIBCO) containing 0.1% BSA (Sigma), 20 mM HEPES (GIBCO), 0.1 mM IBMX (Sigma), and 0.2 mM RO20-1724 (Calbiochem) at 2×10^4 cells/mL, and the cell suspension is added at 6 μL/well. The solution was incubated at 37° C. for 1 hour and intracellular cAMP concentration is measured using cAMP Gs dynamic kit (Cisbio) according to the protocol attached to the product. Specifically, cAMP-d2 and Anti-cAMP-Cryptate are each added in an amount of 3 μL/well, the mixture is incubated at room temperature for 1 hour, and time-resolved fluorescence is measured using PHERAstar (BMG Labtech).
The dilution concentration or the dilution solvent are changed as necessary.
The compounds of the present invention were tested essentially as described above.

[1] abbreviates: CHO-K1, hGLP-1R/CHO-K1 cells, cAMP, 100% = human GLP-1 (7-36) at 2 nM, 0% = DMSO only, read-out: Emax(%).
[2] abbreviates: hGLP-1R/CHO-K1 cells, cAMP increase, 37° C. 1 hour.

T1 sequence (P43220 24-463): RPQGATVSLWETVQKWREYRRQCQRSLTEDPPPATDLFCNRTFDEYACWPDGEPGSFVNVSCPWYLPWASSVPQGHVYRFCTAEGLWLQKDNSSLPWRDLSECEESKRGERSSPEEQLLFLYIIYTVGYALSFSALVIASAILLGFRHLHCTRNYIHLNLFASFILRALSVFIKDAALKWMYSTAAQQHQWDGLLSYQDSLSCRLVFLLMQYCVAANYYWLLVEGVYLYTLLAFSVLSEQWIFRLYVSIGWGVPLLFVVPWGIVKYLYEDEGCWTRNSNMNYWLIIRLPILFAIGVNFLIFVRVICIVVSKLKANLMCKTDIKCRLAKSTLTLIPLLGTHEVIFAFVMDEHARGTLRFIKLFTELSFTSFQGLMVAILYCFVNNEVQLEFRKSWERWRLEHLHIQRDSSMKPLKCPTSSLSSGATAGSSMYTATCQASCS

`CC1c2cc(OCc3ccc(Cl)cc3F)ccc2CCN1Cc1nc2ccc(C(=O)O)cc2n1C[C@@H]1CCO1` (stereo partly shown) [Compound I-025]: the Emax (CHO-K1, maximum effect, cAMP increase in GLP-1 R/CHO-K1 cells, 2 nM human GLP-1 (7-36) = 100%, DMSO only = 0%, read-out: Emax) came to 78.7%. In addition, under “cAMP increase in GLP-1 R/CHO-K1 cells, 2 nM human GLP-1 (7-36) = 100%, DMSO only = 0%”, the midpoint of the response, the EC50, lay at 109 nM.
Consider `O=C(O)c1ccc2nc(CN3CCc4cc(C(F)(F)F)c(OCc5ccc(Cl)cc5F)cc4C3)n(C[C@@H]3CCO3)c2n1` [Compound I-026], for which, under setting [1], the Emax worked out at 85%. In addition, under setting [2], the EC50 amounted to 6.35 nM.
For the molecule `O=C(O)c1ccc2nc(CN3CCc4cc(C(F)F)c(OCc5ccc(Cl)cc5F)cc4C3)n(C[C@@H]3CCO3)c2c1` [Compound I-027], under setting [1], the Emax came to 80%. The molecule also returned a concentration for a half-maximal effect (EC50) under setting [2] of 9.48 nM.
For `Cc1cc2c(cc1OCc1ccc(Cl)cc1F)CN(Cc1nc3ncc(C(=O)O)cc3n1C[C@@H]1CCO1)CC2` [Compound I-028] the same measures were 84% and 78.6 nM.
In the case of `Cc1cc2c(cc1OCc1ccc(F)cc1F)CN(Cc1nc3ccc(C(=O)O)cc3n1C[C@@H]1CCO1)CC2` [Compound I-029], the Emax under setting [1] was 81.3%. Also, under setting [2], the EC50 came to 94.6 nM.
For `O=C(O)c1ccc2nc(CN3CCc4cc(C(F)(F)F)c(OCc5ccc(Cl)cc5F)cc4C3=O)n(C[C@@H]3CCO3)c2c1` [Compound I-030], under setting [1], the Emax was 92.3%. For the same molecule, under setting [2], the EC50 was 3.56 nM.
With `O=C(O)c1ccc2nc(CN3CCc4cc(C(F)(F)F)c(OCc5ccc(Cl)cc5F)cc4C3=O)n(C[C@@H]3CCO3)c2n1` [Compound I-031], the Emax under setting [1] is 91%. This molecule also displayed an EC50 under setting [2] of 8.92 nM.
Taken in the same sequence, the figures for `O=C(O)c1cc2c(cc1F)nc(CN1CCc3cc(C(F)(F)F)c(OCc4ccc(Cl)cc4F)cc3C1)n2C[C@@H]1CCO1` [Compound I-034] were 103% and 8.71 nM.
Taken in the same sequence, the figures for `C[C@@H]1c2cc(OCc3ccc(Cl)cc3F)c(C(F)(F)F)cc2CCN1Cc1nc2ccc(C(=O)O)cc2n1C[C@@H]1CCO1` [Compound I-036] were 66% and 99.5 nM.
On to `C[C@H]1c2cc(OCc3ccc(Cl)cc3F)c(C(F)(F)F)cc2CCN1Cc1nc2ccc(C(=O)O)nc2n1C[C@@H]1CCO1` [Compound I-037], for which the maximal effect (Emax) under setting [1] was determined as 126%. The EC50 under setting [2] is 0.663 nM.
For `CS(=O)(=O)CCn1c(CN2CCc3cc(C(F)(F)F)c(OCc4ccc(Cl)cc4F)cc3C2)nc2ccc(C(=O)O)cc21` [Compound I-039] the same measures were 83.3% and 43.8 nM.
Taken in the same sequence, the figures for `O=C(O)c1ccc2nc(CN3CCc4cc(C(F)(F)F)c(OCc5ccc(Cl)cc5F)cc4C3)n(C[C@@H]3CCCO3)c2c1` [Compound I-040] were 147% and 37.7 nM.
For `N#CCC1(Cn2c(CN3CCc4cc(C(F)(F)F)c(OCc5ccc(Cl)cc5F)cc4C3)nc3ccc(C(=O)O)cc32)CC1` [Compound I-041] the same measures were 102% and 45.2 nM.
Take `O=C(O)c1ccc2nc(CN3CCc4cc(C(F)(F)F)c(OCc5ccc(Cl)cc5F)cc4C3)n(C[C@H]3CCO3)c2c1` [Compound I-042]: the Emax under setting [1] was 95%. Moreover, a half-maximal response under setting [2] (EC50) required 73.8 nM.
For `O=C(O)c1ccc2nc(CN3CCc4cc(C(F)(F)F)c(OCc5ccc(Cl)cc5F)cc4C3)n(CC3(CF)CC3)c2c1` [Compound I-043], the Emax under setting [1] stood at 109%. Further, a half-maximal effect under setting [2] (EC50) was put at 13.2 nM.
Taken in the same sequence, the figures for `COCCn1c(CN2CCc3cc(C(F)(F)F)c(OCc4ccc(Cl)cc4F)cc3C2)nc2ccc(C(=O)O)cc21` [Compound I-045] were 93.7% and 81.5 nM.
`O=C(O)c1ccc2nc(Cc3ccc4cc(C(F)(F)F)c(OCc5ccc(Cl)cc5F)nc4c3)n(C[C@@H]3CCO3)c2c1` [Compound I-046]: the Emax under setting [1] was 118%.
On to `O=C(O)c1ccc2nc(CN3CCc4cc(C(F)(F)F)c(OCc5ccc(OC(F)F)cc5F)cc4C3)n(C[C@@H]3CCO3)c2c1` [Compound I-047], for which, under setting [1], the Emax amounted to 105%. The same molecule registered an EC50 under setting [2] of 4.3 nM.
For `O=C(O)c1ccc2nc(CN3CCc4cc(C(F)(F)F)c(OCc5ccc(Cl)cc5F)cc4C3)n(CC3(C(F)F)CC3)c2c1` [Compound I-048] the same measures were 130% and 75.4 nM.
For `CCn1cncc1Cn1c(CN2CCc3cc(C(F)(F)F)c(OCc4ccc(Cl)cc4F)cc3C2)nc2ccc(C(=O)O)cc21` [Compound I-049] the same measures were 95% and 5.03 nM.
For `Cn1nncc1Cn1c(CN2CCc3cc(C(F)(F)F)c(OCc4ccc(Cl)cc4F)cc3C2)nc2ccc(C(=O)O)cc21` [Compound I-050] the same measures were 67.7% and 238 nM.
Take `O=C(O)c1ccc2nc(CN3CCc4cc(C(F)(F)F)c(OCc5ccc(Cl)cc5F)cc4C3)n(Cc3cccnc3)c2c1` [Compound I-051]: the Emax under setting [1] turned out to be 87.3%. A half-maximal effect under setting [2] (EC50) was put at 24.2 nM.
For `O=C(O)c1ccc2nc(CN3CCc4cc(C(F)(F)F)c(OCc5ccc(Cl)cc5F)cc4C3)n(Cc3ncco3)c2c1` [Compound I-052] the same measures were 92% and 24.5 nM.
For `N#Cc1ccc(COc2cc3c(cc2C(F)(F)F)CCN(Cc2nc4ccc(C(=O)O)cc4n2C[C@@H]2CCO2)C3)c(F)c1` [Compound I-053] the same measures were 115% and 14.6 nM.
Taken in the same sequence, the figures for `O=C(O)c1ccc2nc(CN3CCc4cc(C(F)(F)F)c(OCc5ccc(Cl)cc5F)cc4C3)n(C[C@@H]3CCO3)c2c1F` [Compound I-054] were 104% and 0.948 nM.
Consider `O=C(NS(=O)(=O)C1CC1)c1ccc2nc(CN3CCc4cc(C(F)(F)F)c(OCc5ccc(Cl)cc5F)cc4C3)n(C[C@@H]3CCO3)c2c1` [Compound I-055], for which the Emax under setting [1] was determined as 87.3%. Further, the EC50 under setting [2] is 78.8 nM.
Taken in the same sequence, the figures for `O=C(O)c1ccc2nc(CN3CCc4cc(C(F)(F)F)c(OCc5ccc(C(F)F)cc5F)cc4C3)n(C[C@@H]3CCO3)c2c1` [Compound I-056] were 110% and 6.04 nM.
Take `O=C(O)c1ccc2nc(CN3CCc4cc(C(F)(F)F)c(OCc5ccc(Cl)c(F)c5F)cc4C3)n(C[C@@H]3CCO3)c2c1` [Compound I-059]: under setting [1], the maximum response (Emax) worked out at 112%. Under setting [2], the EC50 is 29.9 nM.
Taken in the same sequence, the figures for `O=C(O)c1cc(Cl)c2nc(CN3CCc4cc(C(F)(F)F)c(OCc5ccc(Cl)cc5F)cc4C3)n(C[C@@H]3CCO3)c2c1` [Compound I-061] were 113% and 1.56 nM.
Taken in the same sequence, the figures for `O=C(O)c1ccc2nc(CN3CCc4nc(C(F)(F)F)c(OCc5ccc(Cl)cc5F)cc4C3)n(C[C@@H]3CCO3)c2c1` [Compound I-062] were 98.3% and 11.6 nM.
As to `O=C(O)c1ccc2nc(CN3CCc4cc(C(F)(F)F)c(OCc5ccc(Cl)cc5F)cc4C3)n(CCOC(F)F)c2c1` [Compound I-063], the Emax under setting [1] stood at 128%. The same molecule came in with an EC50 under setting [2] of 98.1 nM.
Taken in the same sequence, the figures for `O=C(O)c1ccc2nc(CN3CCc4cc(C(F)(F)F)c(OCc5cc(F)c(Cl)cc5F)cc4C3)n(C[C@@H]3CCO3)c2c1` [Compound I-064] were 102% and 5.74 nM.
Taken in the same sequence, the figures for `Fc1cc(Cl)ccc1COc1cc2c(cc1C(F)(F)F)CCN(Cc1nc3ccc(-c4nnn[nH]4)cc3n1C[C@@H]1CCO1)C2` [Compound I-065] were 116% and 9.82 nM.
For `O=C(O)c1ccc2nc(CN3CCc4cc(C(F)(F)F)c(OCc5ccc(Cl)cn5)cc4C3)n(C[C@@H]3CCO3)c2c1` [Compound I-067] the same measures were 130% and 3.33 nM.
For the molecule `O=C(O)c1ccc2nc(CN3CCc4cc(C(F)(F)F)c(OCc5ncc(Cl)cc5F)cc4C3)n(C[C@@H]3CCO3)c2c1` [Compound I-068], the Emax under setting [1] is 114%. In addition, under setting [2], the EC50 stood at 3.54 nM.
`Cn1ccc(COc2cc3c(cc2C(F)(F)F)CCN(Cc2nc4ccc(C(=O)O)cc4n2C[C@@H]2CCO2)C3)n1` [Compound I-069]: the Emax under setting [1] turned out to be 116%. Also, under setting [2], the 50% effective concentration (EC50) came to 7.28 nM.
Taken in the same sequence, the figures for `Cc1cc(COc2cc3c(cc2C(F)(F)F)CCN(Cc2nc4ccc(C(=O)O)cc4n2C[C@@H]2CCO2)C3)no1` [Compound I-070] were 119% and 23.4 nM.
Taken in the same sequence, the figures for `Cn1cc(COc2cc3c(cc2C(F)(F)F)CCN(Cc2nc4ccc(C(=O)O)cc4n2C[C@@H]2CCO2)C3)cn1` [Compound I-071] were 114% and 63.9 nM.
For `Cn1nnc2cc(COc3cc4c(cc3C(F)(F)F)CCN(Cc3nc5ccc(C(=O)O)cc5n3C[C@@H]3CCO3)C4)ccc21` [Compound I-072] the same measures were 127% and 12.6 nM.
As to `O=C(O)c1ccc2nc(CN3CCc4cc(C(F)(F)F)c(OCc5ccc6c(c5)CCC6)cc4C3)n(C[C@@H]3CCO3)c2c1` [Compound I-074], the Emax under setting [1] was found to be 100%. The molecule also came in with an EC50 under setting [2] of 40 nM.

These data come from US20240217966A1, “PHARMACEUTICAL COMPOSITION CONTAINING GLP-1 RECEPTOR AGONIST HAVING FUSED RING” (Shionogi & Co., Ltd., priority 2021, published 2024).
